Reference: PubChem BioAssay AID1963986 (Molecular Pharmacology Branch, DTP, NCI, 2024)

System: 171881-019-R-J1-PDC tumor spheroid viability
Assay: Anticancer human tumor 171881-019-R-J1-PDC patient-derived invasive breast carcinoma cell line growth inhibition [PI3K]
Settings: spheroids with HUVEC and MSC; for IC50: curve of first compound; for viability, T/C: stronger effect = lower value
Procedure, shortened: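 Multi-cell spheroids combine tumor cells with HUVEC and human MSCs, treated with targeted agents alone or with inavolisib, alpelisib, duvelisib or copanlisib. Concentrations fall in half-log steps from at or near clinical Cmax, or from 10 microM where Cmax is unknown; viability read-out.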

[1] = second compound 0.0316 µM, first compound 0.0316 µM
[2] = second compound 0.0316 µM, first compound 0.1 µM
[3] = second compound 0.0316 µM, first compound 0.316 µM
[4] = second compound 0.0316 µM, first compound 1 µM
[5] = second compound 0.0316 µM, first compound 3.16 µM
[6] = second compound 0.0316 µM, first compound 10 µM
[7] = second compound 0.1 µM, first compound 0.0316 µM
[8] = second compound 0.1 µM, first compound 0.1 µM
[9] = second compound 0.1 µM, first compound 0.316 µM
[10] = second compound 0.1 µM, first compound 1 µM
[11] = second compound 0.1 µM, first compound 3.16 µM
[12] = second compound 0.1 µM, first compound 10 µM
[13] = second compound 0.316 µM, first compound 0.0316 µM
[14] = second compound 0.316 µM, first compound 0.1 µM
[15] = second compound 0.316 µM, first compound 0.316 µM
[16] = second compound 0.316 µM, first compound 1 µM
[17] = second compound 0.316 µM, first compound 3.16 µM
[18] = second compound 0.316 µM, first compound 10 µM
[19] = second compound 1 µM, first compound 0.0316 µM
[20] = second compound 1 µM, first compound 0.1 µM
[21] = second compound 1 µM, first compound 0.316 µM
[22] = second compound 1 µM, first compound 1 µM
[23] = second compound 1 µM, first compound 3.16 µM
[24] = second compound 1 µM, first compound 10 µM
[25] = second compound 3.16 µM, first compound 0.0316 µM
[26] = second compound 3.16 µM, first compound 0.1 µM
[27] = second compound 3.16 µM, first compound 0.316 µM
[28] = second compound 3.16 µM, first compound 1 µM
[29] = second compound 3.16 µM, first compound 3.16 µM
[30] = second compound 3.16 µM, first compound 10 µM
[31] = second compound 10 µM, first compound 0.0316 µM
[32] = second compound 10 µM, first compound 0.1 µM
[33] = second compound 10 µM, first compound 0.316 µM
[34] = second compound 10 µM, first compound 1 µM
[35] = second compound 10 µM, first compound 3.16 µM
[36] = second compound 10 µM, first compound 10 µM
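Also: spheroids exposed to compound for 7 days before viability read.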
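For viability, T/C in this document: 100% = DMSO vehicle-treated spheroids.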

Q: What does the source list for `C#Cc1c(F)ccc2cc(O)cc(-c3ncc4c(N5CC6CCC(C5)N6)nc(OCC56CCCN5CC(F)C6)nc4c3F)c12` (centres undefined) + Cc1nc(NC(=O)N2CCCC2C(N)=O)sc1-c1ccnc(C(C)(C)C(F)(F)F)c1?
A: IC50 (second compound 0.0316 µM): 250 nM; IC50 (second compound 0.1 µM): 115 nM; IC50 (second compound 0.316 µM): < 31.6 nM; IC50 (second compound 1 µM): < 31.6 nM; IC50 (second compound 3.16 µM): < 31.6 nM; IC50 (second compound 10 µM): < 31.6 nM; viability, T/C [1]: 88.3%; viability, T/C [2]: 66.7%; viability, T/C [3]: 44.4%; viability, T/C [4]: 32.9%; viability, T/C [5]: 27.4%; viability, T/C [6]: 20%; viability, T/C [7]: 72.3%; viability, T/C [8]: 51.2%; viability, T/C [9]: 37.7%; viability, T/C [10]: 26.1%; viability, T/C [11]: 20.8%; viability, T/C [12]: 16.4%; viability, T/C [13]: 46%; viability, T/C [14]: 30.1%; viability, T/C [15]: 22.6%; viability, T/C [16]: 15.6%; viability, T/C [17]: 11.7%; viability, T/C [18]: 10.2%; viability, T/C [19]: 27.2%; viability, T/C [20]: 19.1%; viability, T/C [21]: 13%; viability, T/C [22]: 9.14%; viability, T/C [23]: 7.33%; viability, T/C [24]: 5.95%; viability, T/C [25]: 11%; viability, T/C [26]: 7.63%; viability, T/C [27]: 5.67%; viability, T/C [28]: 4.44%; viability, T/C [29]: 4%; viability, T/C [30]: 1.21%; viability, T/C [31]: 2.71%; viability, T/C [32]: 3.19%; viability, T/C [33]: 2.3%; viability, T/C [34]: 2.05%; viability, T/C [35]: 1.56%; viability, T/C [36]: 0.74%

Q: For `C=CC(=O)N1CCN(c2nc(=O)n(-c3c(C)ccnc3C(C)C)c3nc(-c4c(O)cccc4F)c(F)cc23)C(C)C1` (centres undefined) + Cc1nc(NC(=O)N2CCCC2C(N)=O)sc1-c1ccnc(C(C)(C)C(F)(F)F)c1, which IC50 (second compound 0.0316 µM) is on record?
A: 9730 nM

Q: What about the IC50 (second compound 0.1 µM) of the same compound?
A: 9440 nM

Q: What about the IC50 (second compound 0.316 µM) of the same compound?
A: 2350 nM

Q: What about the IC50 (second compound 1 µM) of the same compound?
A: < 31.6 nM

Q: What about the IC50 (second compound 3.16 µM) of the same compound?
A: < 31.6 nM

Q: And the IC50 (second compound 10 µM)?
A: < 31.6 nM

Q: What about the viability, T/C [1] of the same compound?
A: 92.6%

Q: What about the viability, T/C [2] of the same compound?
A: 83.4%

Q: What about the viability, T/C [3] of the same compound?
A: 98.4%

Q: What about the viability, T/C [4] of the same compound?
A: 92%

Q: And the viability, T/C [5]?
A: 79.6%

Q: What about the viability, T/C [6] of the same compound?
A: 48.8%

Q: And the viability, T/C [7]?
A: 84.1%

Q: What about the viability, T/C [8] of the same compound?
A: 73.2%

Q: And the viability, T/C [9]?
A: 86.3%

Q: What about the viability, T/C [10] of the same compound?
A: 87.4%

Q: What about the viability, T/C [11] of the same compound?
A: 86.9%

Q: What about the viability, T/C [12] of the same compound?
A: 48.2%

Q: And the viability, T/C [13]?
A: 55%

Q: And the viability, T/C [14]?
A: 50.9%

Q: And the viability, T/C [15]?
A: 56.8%

Q: And the viability, T/C [16]?
A: 60.4%

Q: What about the viability, T/C [17] of the same compound?
A: 57.9%

Q: And the viability, T/C [18]?
A: 34.7%

Q: What about the viability, T/C [19] of the same compound?
A: 29.8%

Q: What about the viability, T/C [20] of the same compound?
A: 32.3%

Q: What about the viability, T/C [21] of the same compound?
A: 32.1%

Q: What about the viability, T/C [22] of the same compound?
A: 32.4%

Q: What about the viability, T/C [23] of the same compound?
A: 33%

Q: And the viability, T/C [24]?
A: 19.4%

Q: And the viability, T/C [25]?
A: 14.7%

Q: And the viability, T/C [26]?
A: 15.2%

Q: And the viability, T/C [27]?
A: 14.5%

Q: What about the viability, T/C [28] of the same compound?
A: 15.2%

Q: What about the viability, T/C [29] of the same compound?
A: 16.8%

Q: And the viability, T/C [30]?
A: 8.95%

Q: What about the viability, T/C [31] of the same compound?
A: 3.67%

Q: And the viability, T/C [32]?
A: 3.63%

Q: What about the viability, T/C [33] of the same compound?
A: 4.33%

Q: What about the viability, T/C [34] of the same compound?
A: 4.28%

Q: What about the viability, T/C [35] of the same compound?
A: 4.51%

Q: And the viability, T/C [36]?
A: 2.34%
